# Laboratory results as given in ChEMBL document CHEMBL3864173, “Design and Synthesis of Novel Macrocyclic Mer Tyrosine Kinase Inhibitors” (ACS Med Chem Lett, 2016).
# Assay: Solubility of the compound at pH 7.4
# Format: physicochemical
# Settings: buffer
smiles,measurement,value
CCCCNc1ncc2c(-c3ccc(CN4CCN(C)CC4)cc3)cn([C@H]3CC[C@H](O)CC3)c2n1.Cl,solubility,47 mg/mL
